# Substitutions are numbered along the chain they refer to.
# Tests used:
# [1] = test system: FXR knockout mouse liver cells; experiment: LPS induced inflammatory gene expression in FXR knockout mouse liver cells; type: cell-based
# Text: (§1) Ivermectin and LPS are used to treat wild-type and FXR knockout mouse liver cells.
# [2] = test system: wild-type mouse liver cells; experiment: LPS induced inflammatory gene expression in wild-type mouse liver cells; type: cell-based; settings: FIG. 19
# Text: as §1
# [3] = test system: other detected nuclear receptors; experiment: Reporter gene analysis, COS-7 cells cotransfected with other nuclear receptors (PPARs, RORs, GR, PR, RARα, RARβ, PXR, CAR); settings: 0.5 μM, COS-7, FIG. 2
# Procedure: (§2) DMEM medium containing 10% fetal bovine serum is used to perform the culture of monkey kidney epithelial cell COS-7 cells, and COS-7 cells are inoculated onto a 24-well plate on the day before transfection with an inoculation density of 5×10^4 cells/well, and transfected on the next day. The transfection is the transient transfection performed using Lipofectamine 2000 (Invitrogen). In the reporter gene analysis experiment, 200 ng of a nuclear receptor full-length expression plasmid or the expression plasmid of the mutant thereof, 200 ng of endogenous promoter reporter gene, and 30 ng of Renilla luciferase expression plasmid are used for cotransfection. 500 μl Opti-MEM is added to each well and cultured for 5 h, followed by adding a ligand medicament diluted in Opti-MEM to reach the corresponding concentration, and treating for 18 h. Various nuclear receptors and the corresponding reporter gene used are as follows: human FXR, EcRE-Luc; human PPARs (α, β, and γ), PPRE-Luc; human RORs (α, β and γ), Pcp2/RORE-Luc; human GR and PR, MMTV-Luc; human RARα and RARβ, and βRE-Luc.
# (§3) A ligand can be tested for the affinity to FXR since the ligand can induce FXR to recruit coregulators after binding to FXR.
# [4] = test system: KK-Ay mice; experiment: Mouse trial, KK-Ay diabetes and obesity model mice fed with high-fat diet; type: in vivo
# Text: In order to detect the efficacy of abamectin/avermectin, ivermectin and the derivative doramectin in the body of a diabetes and obesity mouse model, we choose diabetes and obesity mouse model mice, KK-Ay mice, as the experimental subject.
# [5] = target: T1, FXR F284H (Homo sapiens, UniProt Q96RI1, F298H); experiment: Reporter gene analysis with FXR point mutant F284H in COS-7 cells; type: cell-based; settings: COS-7, EcRE reporter, FIG. 5
# T1 construct: the expression plasmid expressing full-length FXR (wt) or with mutations at the corresponding sites; expressed in transfected cells; host or cells: COS-7
# T1 sequence (Q96RI1 1-472 isoform Q96RI1-2 F284H): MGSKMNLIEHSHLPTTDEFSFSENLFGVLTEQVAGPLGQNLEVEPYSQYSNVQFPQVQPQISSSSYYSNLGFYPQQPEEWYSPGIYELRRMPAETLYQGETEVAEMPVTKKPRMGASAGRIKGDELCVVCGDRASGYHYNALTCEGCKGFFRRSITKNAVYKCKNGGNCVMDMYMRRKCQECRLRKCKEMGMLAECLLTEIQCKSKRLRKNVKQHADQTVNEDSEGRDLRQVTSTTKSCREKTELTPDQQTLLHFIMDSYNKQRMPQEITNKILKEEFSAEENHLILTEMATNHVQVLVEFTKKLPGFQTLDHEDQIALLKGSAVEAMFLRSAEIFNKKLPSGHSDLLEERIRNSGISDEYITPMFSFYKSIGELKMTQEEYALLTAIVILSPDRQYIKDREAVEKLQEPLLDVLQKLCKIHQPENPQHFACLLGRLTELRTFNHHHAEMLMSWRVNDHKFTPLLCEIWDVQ
# Procedure: (§4) (2) The expression vector of FXR with point mutations at key binding sites is obtained. Quick-Change site-directed mutagenesis kit (Stratagene) is used for mutation, and the mutation reaction system is as follows: wild-type plasmid pCMX-FXR (50 ng) of 0.5 μl, mutation primer (100 μM) of 0.2 μl, pfu DNA polymerase (Invitrogen) (2 U) of 1 μl, 10 mM dNTPs of 1 μl, 10× PCR buffer of 5 μl, and ddH2O of 43 μl. PCR procedures are performed as follows: 94° C. for 2 min; 94° C. for 30 s, 55° C. for 1 min, 72° C. for 7 min, 15 cycles. 20 μl PCR product is digested with Dpn I […], followed by taking and transforming 2 μl digestion product into E. coli Trans 109 competent cells, ice bath for 30 min, and heat shock at 42° C. for 30 s. 250 μl of LB liquid medium without antibiotics is added, and preshaken at 225 rpm at 37° C. for 40 min, followed by taking 150 μl of products, spreading same on LB solid medium plates with ampicillin at 100 μg/ml and culturing them at 37° C. overnight. On the next day, the single colony is picked out and placed in 2 ml LB liquid medium containing ampicillin at 100 μg/ml, and cultured at 37° C. overnight. Plasmid extraction is performed on the shaken bacterial solution using Qiagen MiniPrep Plasmid Minipreparation Kit. The plasmid is identified by sequencing.
# [6] = target: T2, FXR A291W (Homo sapiens, UniProt Q96RI1, A305W); experiment: Reporter gene analysis with FXR point mutant A291W in COS-7 cells; type: cell-based; settings: COS-7, EcRE reporter, FIG. 5
# T2 construct: the expression plasmid expressing full-length FXR (wt) or with mutations at the corresponding sites; expressed in transfected cells; host or cells: COS-7
# T2 sequence (Q96RI1 1-472 isoform Q96RI1-2 A291W): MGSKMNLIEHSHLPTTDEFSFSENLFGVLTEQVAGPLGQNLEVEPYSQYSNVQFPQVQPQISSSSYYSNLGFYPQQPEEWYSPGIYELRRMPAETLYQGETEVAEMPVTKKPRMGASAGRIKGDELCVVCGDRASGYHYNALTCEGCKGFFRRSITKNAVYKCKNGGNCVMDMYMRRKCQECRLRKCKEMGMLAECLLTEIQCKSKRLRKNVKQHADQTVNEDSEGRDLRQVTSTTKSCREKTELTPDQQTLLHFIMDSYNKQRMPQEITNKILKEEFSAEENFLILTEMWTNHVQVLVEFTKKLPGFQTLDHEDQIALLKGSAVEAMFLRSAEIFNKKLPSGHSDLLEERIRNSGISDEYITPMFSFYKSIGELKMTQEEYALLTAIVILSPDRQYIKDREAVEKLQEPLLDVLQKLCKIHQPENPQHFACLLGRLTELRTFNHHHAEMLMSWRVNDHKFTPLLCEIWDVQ
# Procedure: as §4
# [7] = target: T3, human FXR (Homo sapiens, UniProt Q96RI1); experiment: Reporter gene analysis, COS-7 cells cotransfected with full-length FXR and EcRE-Luc; type: cell-based; settings: 0.5 μM, COS-7, EcRE reporter, FIG. 2
# T3 construct: expressed in transfected cells; host or cells: COS-7
# T3 sequence (Q96RI1 1-472 isoform Q96RI1-2): T2 sequence (Q96RI1 1-472 isoform Q96RI1-2 A291W) with W291A
# Procedure: as §2, §3
# [8] = i.p. daily 14 days, ivermectin/derivatives 1.3 mg/kg, GW4064 30 mg/kg
compound,measurement,setting,value
CC[C@H](C)[C@H]1O[C@]2(CC[C@@H]1C)C[C@@H]1C[C@@H](C/C=C(\C)C(O[C@H]3C[C@H](OC)C(O[C@H]4C[C@H](OC)[C@@H](O)[C@H](C)O4)[C@H](C)O3)[C@@H](C)/C=C/C=C3\CO[C@@H]4[C@H](O)C(C)=CC(C(=O)O1)[C@]34O)O2 (some centres unmarked) [ivermectin],expression of inflammatory factors induced by LPS,[1],no clear change
same,expression of IL-6 induced by LPS,[2],clearly inhibit
same,expression of MIP-1a induced by LPS,[2],clearly inhibit
same,expression of TNFa induced by LPS,[2],clearly inhibit
same,expression of iNOS induced by LPS,[2],clearly inhibit
same,transcriptional activity of the other detected nuclear receptors,[3],does not produce any effect
same,serum insulin level,"[4]; 1.3 mg/kg i.p. daily, 14 days",significantly decreases
same,serum saccharides (glucose) level,"[4]; 1.3 mg/kg i.p. daily, 14 days",significantly decreases
same,serum free fatty acids,"[4]; i.p. daily 14 days, ivermectin 1.3 mg/kg, GW4064 30 mg/kg",significantly decrease
same,serum cholesterol,[4]; [8],significantly decrease
same,serum triglycerides,[4]; [8],significantly decrease
same,transcriptional activity of FXR mutant F284H,[5],incapable of activating the transcriptional activity of FXR
same,transcriptional activity of FXR mutant A291W,[6],incapable of activating the transcriptional activity of FXR
same,transcriptional activity of FXR,[7],can only specifically activate the transcriptional activity of FXR

# — patent publication US10052340B2 (XIAMEN UNIVERSITY, priority 2012, dated 2018)
